Reference: paper doi:10.1101/2020.10.05.326645v1 (biorxiv, 2020)

Tests used:
HhTAR1 [1] = molecular target: T1, HhTAR1 (Halyomorpha halys, UniProt A0A8A6C5M4); experiment: Fluo-4 calcium mobilization, FlexStation II, HEK […] cells; assay type: cell-based
T1 sequence (A0A8A6C5M4 1-448): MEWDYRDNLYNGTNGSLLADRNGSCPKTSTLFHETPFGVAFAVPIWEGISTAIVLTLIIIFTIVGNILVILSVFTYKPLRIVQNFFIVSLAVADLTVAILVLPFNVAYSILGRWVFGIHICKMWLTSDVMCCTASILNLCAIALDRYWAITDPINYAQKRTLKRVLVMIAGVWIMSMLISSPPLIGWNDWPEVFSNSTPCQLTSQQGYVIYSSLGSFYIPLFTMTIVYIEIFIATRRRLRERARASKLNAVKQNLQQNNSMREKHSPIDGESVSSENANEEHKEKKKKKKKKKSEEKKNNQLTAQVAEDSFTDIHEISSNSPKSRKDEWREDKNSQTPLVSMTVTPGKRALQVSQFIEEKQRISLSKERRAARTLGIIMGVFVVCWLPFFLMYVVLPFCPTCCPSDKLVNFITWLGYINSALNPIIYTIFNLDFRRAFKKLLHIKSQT

HhTAR1 [2] = molecular target: T1, HhTAR1; assay type: cell-based

Kb (HhTAR1 [2]) [nM]	SMILES	EC50 (HhTAR1 [1]) [nM]
–	NCCc1ccc(O)cc1 [tyramine]	1020
5.5	COC(=O)[C@@H]1[C@H]2C[C@H]3c4[nH]c5ccccc5c4CCN3C[C@@H]2CC[C@@H]1O [yohimbine]	–
